Among the test systems are UO-31 renal; SK-MEL-5 melanoma; OVCAR-5 ovarian; OVCAR-4 ovarian; MOLT-4 leukemia; SNB-75 CNS; SW-620 colon; SF-295 CNS; HOP-92 NSCLC.
Assay in all cases: NCI tumour cell line growth inhibition, 48 h

SMILES strings stand for the structures.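 Where inhibition never reached the appropriate level, the endpoint shown equals the highest concentration tested. Otherwise, values were interpolated linearly from a five-concentration, 48-hour dose response in 96-well plates. GI50 is the concentration that inhibits growth by half. TGI: total growth inhibition.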

Turning to `Cc1cc(-c2nnc(/C=C/c3ccc4c(c3)OCO4)o2)n[nH]1`, the GI50 is 14.7 µM in the assay on UO-31 renal; 13 µM with SK-MEL-5 melanoma; 38.5 µM with OVCAR-5 ovarian; 23.7 µM in the assay with OVCAR-4 ovarian; 3.39 µM with MOLT-4 leukemia; 9.02 µM in the assay on SNB-75 CNS. The GI50 in the assay with SW-620 colon is 2.85 µM; with SF-295 CNS, 7.04 µM. The TGI with UO-31 renal was more than 50 µM; with SK-MEL-5 melanoma, 39 µM; with OVCAR-5 ovarian, more than 50 µM; with OVCAR-4 ovarian, more than 50 µM; in the assay with MOLT-4 leukemia, 39.5 µM; in the assay with SNB-75 CNS, 36.2 µM. Further, the TGI in the assay on SW-620 colon is 19.8 µM; in the assay on SF-295 CNS, 38 µM.
Turning to `COc1cc(Cl)cc(-c2nn(-c3cccc(NC(=O)Nc4cccc(C(F)(F)F)c4)c3)cc2-c2ccncc2)c1`, the GI50 in the assay on UO-31 renal is 1.03 µM; in the assay on SK-MEL-5 melanoma, 1.48 µM; in the assay on OVCAR-5 ovarian, 3.06 µM; in the assay on OVCAR-4 ovarian it was 2.54 µM; in the assay with MOLT-4 leukemia, 1.14 µM; with SNB-75 CNS, 1.78 µM. Further, the figures for the GI50 in the assay with SW-620 colon and with SF-295 CNS were 2.3 µM and 0.783 µM, respectively. Moreover, the TGI with UO-31 renal amounted to 7.75 µM; in the assay on SK-MEL-5 melanoma, 2.84 µM; in the assay with OVCAR-5 ovarian, 30.1 µM; with OVCAR-4 ovarian it was 38.8 µM; in the assay with MOLT-4 leukemia, 4.35 µM; in the assay with SNB-75 CNS it was 13.9 µM. In addition, the TGI in the assay with SW-620 colon was 26.8 µM; in the assay with SF-295 CNS, 4.62 µM.
In the case of `Nc1nonc1-c1nc2ccccc2n1Cc1ccc(F)cc1`, the GI50 with UO-31 renal is 5.72 µM; with HOP-92 NSCLC, 4.04 µM; in the assay on OVCAR-5 ovarian, more than 100 µM; in the assay with OVCAR-4 ovarian, more than 100 µM; in the assay with MOLT-4 leukemia it was 5.5 µM; with SNB-75 CNS it was 1.41 µM. Further, the GI50 with SW-620 colon was 3.54 µM; in the assay with SF-295 CNS it was 13.1 µM. For the same molecule, the TGI is more than 100 µM with UO-31 renal; 36.7 µM in the assay on HOP-92 NSCLC; more than 100 µM with OVCAR-5 ovarian; more than 100 µM in the assay with OVCAR-4 ovarian; more than 100 µM in the assay on MOLT-4 leukemia; 9.52 µM in the assay on SNB-75 CNS. The TGI in the assay on SW-620 colon and in the assay on SF-295 CNS was more than 100 µM in each case.
Regarding `N#CC1=C(N)NC(=S)NC1c1ccc(-c2ccc(-c3nc4ccccc4o3)cc2)s1` (configuration not stated), the GI50 in the assay with UO-31 renal was 7.89 µM; with HOP-92 NSCLC, 9.84 µM; with SK-MEL-5 melanoma, 9.14 µM; in the assay with OVCAR-5 ovarian, 16 µM; in the assay on SW-620 colon it was 21.3 µM; in the assay with SF-295 CNS it was 13.3 µM. In addition, the TGI in the assay with UO-31 renal is 17 µM; in the assay with HOP-92 NSCLC, more than 50 µM; in the assay on SK-MEL-5 melanoma it was 18.3 µM; in the assay with OVCAR-5 ovarian, 34.6 µM; in the assay with SW-620 colon, more than 50 µM; with SF-295 CNS it was 38.8 µM.
Turning to `COc1ccc(C(C)c2cc(OC)c(OC)c(OC)c2)cc1` (configuration not stated), the GI50 was 0.409 µM in the assay with UO-31 renal; 3.6 µM in the assay on HOP-92 NSCLC; 0.13 µM with SK-MEL-5 melanoma; 0.291 µM with OVCAR-5 ovarian; 2.97 µM in the assay with OVCAR-4 ovarian; 0.264 µM in the assay on MOLT-4 leukemia. Moreover, the values for the GI50 with SW-620 colon and with SF-295 CNS were 0.0581 µM and 0.0752 µM, respectively. Also, the TGI with UO-31 renal was more than 50 µM; in the assay with HOP-92 NSCLC, more than 50 µM; in the assay on SK-MEL-5 melanoma, 12.8 µM; with OVCAR-5 ovarian, more than 50 µM; in the assay on OVCAR-4 ovarian it was more than 50 µM; in the assay on MOLT-4 leukemia, more than 50 µM. Besides, the TGI in the assay on SW-620 colon and in the assay on SF-295 CNS was more than 50 µM each time.
Turning to `O=S(=O)(NCCNc1nccc(-c2c(-c3ccc(F)c(O)c3)nc3sccn23)n1)c1ccc(Cl)cc1`, the GI50 was 0.94 µM in the assay on UO-31 renal; 2.39 µM in the assay with HOP-92 NSCLC; 7.31 µM in the assay on OVCAR-5 ovarian; 2.79 µM with OVCAR-4 ovarian; 1.13 µM in the assay with SNB-75 CNS; more than 50 µM in the assay with SW-620 colon. Moreover, the GI50 with SF-295 CNS was 2.35 µM. For the same molecule, the TGI in the assay on UO-31 renal was more than 50 µM; in the assay on HOP-92 NSCLC it was 13.8 µM; in the assay with OVCAR-5 ovarian, more than 50 µM; with OVCAR-4 ovarian, more than 50 µM; in the assay with SNB-75 CNS, 9.31 µM; in the assay on SW-620 colon, more than 50 µM. In the assay with SF-295 CNS, this molecule showed a TGI of 14.2 µM.
On to `Nc1c(C(=O)Nc2ccccn2)sc2nc3c(cc12)C(O)CCC3` (configuration not stated), for which the GI50 with UO-31 renal is 3.68 µM; in the assay with SK-MEL-5 melanoma it was 1.47 µM; in the assay on OVCAR-5 ovarian, 2.54 µM; in the assay on OVCAR-4 ovarian, more than 50 µM; with MOLT-4 leukemia, 2.08 µM; in the assay on SNB-75 CNS, 1.66 µM. The values for the GI50 with SW-620 colon and in the assay with SF-295 CNS were 1.62 µM and 1.74 µM, respectively. Besides, the TGI in the assay on UO-31 renal, in the assay with SK-MEL-5 melanoma, with OVCAR-5 ovarian, with OVCAR-4 ovarian, in the assay on MOLT-4 leukemia and in the assay on SNB-75 CNS was more than 50 µM each time. Besides, the TGI in the assay on SW-620 colon and in the assay with SF-295 CNS was more than 50 µM in each case.
As to `CCN(CC)c1c(-c2ccccc2)n[nH]c1C(=O)OC`, the GI50 in the assay with UO-31 renal was 46.5 µM; with HOP-92 NSCLC it was 17.8 µM; with SK-MEL-5 melanoma it was 14.5 µM; in the assay with OVCAR-5 ovarian, 31 µM; in the assay with OVCAR-4 ovarian it was 54.1 µM; in the assay on MOLT-4 leukemia it was 18.6 µM. Also, the GI50 with SNB-75 CNS is 33.9 µM; in the assay on SW-620 colon, 26.6 µM. Also, the TGI was more than 100 µM with UO-31 renal; 51.1 µM in the assay on HOP-92 NSCLC; 27.6 µM in the assay with SK-MEL-5 melanoma; more than 100 µM in the assay on OVCAR-5 ovarian; more than 100 µM with OVCAR-4 ovarian; 58.2 µM in the assay on MOLT-4 leukemia. In addition, the TGI in the assay with SNB-75 CNS and with SW-620 colon was more than 100 µM throughout.
Turning to `CC(=O)Oc1ccc2c(c1)[C@@]1(C)CCCC(C)(C)[C@@H]1CC2`, the GI50 with UO-31 renal is 31.3 µM; with HOP-92 NSCLC, 21.7 µM; with SK-MEL-5 melanoma, 30.9 µM; in the assay with OVCAR-5 ovarian it was 22.3 µM; in the assay with MOLT-4 leukemia it was 30.9 µM; in the assay with SW-620 colon it was 28.2 µM. In the assay with SF-295 CNS, the GI50 is 19.1 µM. The TGI with UO-31 renal was 79.9 µM; in the assay with HOP-92 NSCLC, 41.9 µM; in the assay on SK-MEL-5 melanoma, 73.6 µM; in the assay with OVCAR-5 ovarian, 40.5 µM; with MOLT-4 leukemia, more than 100 µM; in the assay with SW-620 colon it was more than 100 µM. Also, the TGI in the assay on SF-295 CNS stood at 56.6 µM.
On to `C=C1c2ccccc2C(=O)c2c1c1c(C(=O)OC)c(OC(=O)OCc3ccc([N+](=O)[O-])cc3)ccc1n2Cc1ccccc1`, for which the GI50 is 8.28 µM in the assay with UO-31 renal; 2.29 µM with HOP-92 NSCLC; 29.1 µM with SK-MEL-5 melanoma; 17.7 µM with OVCAR-5 ovarian; 23.2 µM in the assay with OVCAR-4 ovarian; 2.6 µM with MOLT-4 leukemia. For the same molecule, the GI50 was 5.63 µM in the assay with SW-620 colon and 33.7 µM in the assay on SF-295 CNS. The TGI is 45.4 µM with UO-31 renal; 7.59 µM in the assay with HOP-92 NSCLC; 64.3 µM with SK-MEL-5 melanoma; 49.5 µM in the assay with OVCAR-5 ovarian; more than 100 µM with OVCAR-4 ovarian; 11.6 µM in the assay with MOLT-4 leukemia. Further, the TGI with SW-620 colon and in the assay on SF-295 CNS was more than 100 µM each time.

These data come from PubChem BioAssay (NCI).
